The numbers were not newly measured in paper PMC6912862 (ACS Medicinal Chemistry Letters, 2019), which cites them from elsewhere.

Several values for one entry are separate records, joined by “and”; a condition that tells them apart may be missing. Equal values may be shown once.

For one series, the system named is HeLa cells. To be noted: cisplatin comparison.
The test system of another series is HeLa xenograft. To be noted: same conditions (2.0 mg/kg), p < 0.05.

As to `N.N.[Cl][Pt][Cl]` [cisplatin, cis-[PtCl2(NH3)2]], the “Cell accumulation of Pt” value with HeLa cells is 4.11 ± 0.59 (nmol of Pt)/10^6 cells. In addition, the “Inhibition of tumor growth (IR), cisplatin-treated groups” value in the series on HeLa xenograft was 35.2% and 35.2 ± 5.8%.
